From patent US7422694B2, “Process for the microbiological decontamination of water by means of photosensitive agents” (priority 2001, dated 2008)

Experiments:
Staphylococcus aureus = assay: Decrease in Staphylococcus aureus viability on exposure to visible light in the presence of hematoporphyrin (FIG. 8); format: cell-based; details: hematoporphyrin at 0.1 pg/ml and 1 μg/ml, cells in stationary or logarithmic growth phase
Protocol: FIG. 8 is a plot where the experimental results relating to the decrease in Staphylococcus aureus viability on exposure to visible light in the presence of hematoporphyrin at 0.1 pg/ml (circles) and 1 μg/ml (squares) concentrations were plotted. Bacterial cells were either in the stationary (closed symbols) or in the logarithmic (open symbols) growth phase.

[1] = test system: wild and antibiotics-resistant bacterial strains (e.g. Streptococcus and Staphylococcus strains), yeasts (e.g. Candida strains); assay: Phototoxicity of hematoporphyrin towards bacterial strains and yeasts; format: cell-based

## hematoporphyrin
Staphylococcus aureus
  photosensitised inactivation of Staphylococcus aureus: effectively this porphyrin photosensitises the inactivation
[1]
  phototoxicity: exhibited phototoxicity
